Assay [1] concerns the target Receptor-type tyrosine-protein kinase FLT3 (Homo sapiens, UniProt P36888). The experiment in a line: NanoBRET assay (FLT3, SGC Frankfurt).
Assay [2] addresses Tyrosine-protein kinase JAK1 (Homo sapiens, UniProt P23458). The experiment in a line: NanoBRET assay (JAK1, SGC Frankfurt). A general note: In BRET a luciferase serves as donor, and the signal depends on an acceptor being close.
Assay [3] deals with Tyrosine-protein kinase JAK2 (Homo sapiens, UniProt O60674). The experiment in a line: NanoBRET assay (JAK2, SGC Frankfurt).
Tyrosine-protein kinase JAK2, sequence (O60674 whole entry): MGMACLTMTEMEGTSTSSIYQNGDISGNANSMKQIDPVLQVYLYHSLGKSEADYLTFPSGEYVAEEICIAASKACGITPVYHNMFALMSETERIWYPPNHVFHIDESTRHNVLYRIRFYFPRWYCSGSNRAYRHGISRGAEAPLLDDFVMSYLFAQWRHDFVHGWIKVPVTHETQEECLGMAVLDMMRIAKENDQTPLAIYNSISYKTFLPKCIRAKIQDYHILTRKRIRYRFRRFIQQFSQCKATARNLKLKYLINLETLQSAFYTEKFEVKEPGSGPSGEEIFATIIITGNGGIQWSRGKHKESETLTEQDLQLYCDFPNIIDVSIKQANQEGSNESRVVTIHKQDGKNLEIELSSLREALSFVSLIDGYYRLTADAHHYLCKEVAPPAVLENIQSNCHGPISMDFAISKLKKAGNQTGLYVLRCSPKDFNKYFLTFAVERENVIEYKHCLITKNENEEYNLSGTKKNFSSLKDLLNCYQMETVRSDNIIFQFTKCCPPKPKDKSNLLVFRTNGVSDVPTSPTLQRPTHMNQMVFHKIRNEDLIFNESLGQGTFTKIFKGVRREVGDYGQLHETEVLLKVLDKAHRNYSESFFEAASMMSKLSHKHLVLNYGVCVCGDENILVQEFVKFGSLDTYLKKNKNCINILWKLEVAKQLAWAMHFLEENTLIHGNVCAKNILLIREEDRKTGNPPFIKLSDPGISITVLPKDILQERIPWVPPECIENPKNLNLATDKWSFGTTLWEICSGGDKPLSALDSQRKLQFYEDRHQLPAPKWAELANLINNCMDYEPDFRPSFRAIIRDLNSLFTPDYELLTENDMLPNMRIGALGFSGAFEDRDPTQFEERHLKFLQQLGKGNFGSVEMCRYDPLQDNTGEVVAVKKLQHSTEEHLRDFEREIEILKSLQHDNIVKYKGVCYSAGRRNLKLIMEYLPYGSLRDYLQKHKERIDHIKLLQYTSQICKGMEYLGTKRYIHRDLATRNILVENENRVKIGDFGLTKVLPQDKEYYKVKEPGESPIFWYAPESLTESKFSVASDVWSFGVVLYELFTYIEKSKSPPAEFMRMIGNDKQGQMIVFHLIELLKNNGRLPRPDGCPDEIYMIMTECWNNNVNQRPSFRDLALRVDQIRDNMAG

The structures appear in SMILES notation.

Receptor-type tyrosine-protein kinase FLT3, sequence (P36888 whole entry): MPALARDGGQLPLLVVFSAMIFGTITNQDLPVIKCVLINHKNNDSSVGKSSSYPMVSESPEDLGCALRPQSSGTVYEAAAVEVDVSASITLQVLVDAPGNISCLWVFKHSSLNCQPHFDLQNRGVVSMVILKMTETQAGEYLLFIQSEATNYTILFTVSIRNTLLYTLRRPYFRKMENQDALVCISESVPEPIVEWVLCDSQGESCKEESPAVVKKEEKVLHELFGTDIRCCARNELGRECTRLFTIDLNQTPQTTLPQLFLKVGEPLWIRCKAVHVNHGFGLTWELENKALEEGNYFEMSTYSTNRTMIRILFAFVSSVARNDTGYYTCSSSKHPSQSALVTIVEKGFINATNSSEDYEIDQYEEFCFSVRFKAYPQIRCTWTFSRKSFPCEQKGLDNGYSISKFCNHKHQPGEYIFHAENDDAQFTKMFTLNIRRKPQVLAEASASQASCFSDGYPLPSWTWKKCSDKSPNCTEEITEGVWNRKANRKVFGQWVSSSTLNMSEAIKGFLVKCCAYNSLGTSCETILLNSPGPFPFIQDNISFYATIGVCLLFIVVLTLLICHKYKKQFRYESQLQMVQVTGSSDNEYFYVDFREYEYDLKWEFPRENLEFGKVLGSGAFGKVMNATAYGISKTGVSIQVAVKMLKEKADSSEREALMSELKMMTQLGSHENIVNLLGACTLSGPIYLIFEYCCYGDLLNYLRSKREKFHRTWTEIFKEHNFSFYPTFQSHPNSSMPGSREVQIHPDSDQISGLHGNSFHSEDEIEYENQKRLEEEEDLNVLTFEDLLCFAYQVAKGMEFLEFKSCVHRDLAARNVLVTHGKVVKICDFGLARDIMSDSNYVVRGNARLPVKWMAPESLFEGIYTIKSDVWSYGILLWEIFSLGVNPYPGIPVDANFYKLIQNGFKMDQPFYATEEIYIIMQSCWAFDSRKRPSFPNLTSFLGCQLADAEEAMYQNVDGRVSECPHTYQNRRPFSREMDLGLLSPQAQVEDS
Tyrosine-protein kinase JAK1, sequence (P23458 whole entry): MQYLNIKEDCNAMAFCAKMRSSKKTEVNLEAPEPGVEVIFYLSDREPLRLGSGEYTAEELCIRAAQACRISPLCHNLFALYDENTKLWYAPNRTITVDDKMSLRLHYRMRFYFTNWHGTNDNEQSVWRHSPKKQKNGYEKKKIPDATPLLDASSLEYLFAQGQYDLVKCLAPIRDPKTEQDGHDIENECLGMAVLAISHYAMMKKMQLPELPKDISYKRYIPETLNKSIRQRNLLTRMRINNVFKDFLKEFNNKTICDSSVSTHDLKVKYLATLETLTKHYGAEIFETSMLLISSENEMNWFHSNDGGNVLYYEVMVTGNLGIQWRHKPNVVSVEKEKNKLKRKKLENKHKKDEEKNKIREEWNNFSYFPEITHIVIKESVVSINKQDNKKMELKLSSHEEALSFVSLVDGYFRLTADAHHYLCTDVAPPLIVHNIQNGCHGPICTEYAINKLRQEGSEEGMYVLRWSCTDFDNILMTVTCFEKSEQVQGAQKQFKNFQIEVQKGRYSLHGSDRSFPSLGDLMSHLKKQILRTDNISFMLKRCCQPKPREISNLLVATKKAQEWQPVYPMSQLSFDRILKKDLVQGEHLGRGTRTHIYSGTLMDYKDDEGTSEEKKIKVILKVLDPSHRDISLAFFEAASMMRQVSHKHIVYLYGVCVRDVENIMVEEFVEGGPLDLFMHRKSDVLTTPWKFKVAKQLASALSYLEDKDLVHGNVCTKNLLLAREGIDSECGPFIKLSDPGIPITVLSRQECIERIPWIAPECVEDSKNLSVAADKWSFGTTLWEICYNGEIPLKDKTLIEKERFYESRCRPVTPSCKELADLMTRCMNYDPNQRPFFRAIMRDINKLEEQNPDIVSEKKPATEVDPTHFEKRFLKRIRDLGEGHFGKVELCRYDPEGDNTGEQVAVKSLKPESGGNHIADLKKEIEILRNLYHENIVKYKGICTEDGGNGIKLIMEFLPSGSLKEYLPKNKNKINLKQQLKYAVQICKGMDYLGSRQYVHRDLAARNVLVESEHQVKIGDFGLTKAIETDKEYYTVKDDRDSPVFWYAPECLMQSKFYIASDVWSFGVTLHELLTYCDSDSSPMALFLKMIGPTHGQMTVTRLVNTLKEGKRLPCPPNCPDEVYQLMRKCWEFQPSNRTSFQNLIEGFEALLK

Broadly, the EC50 is the concentration at which the effect is half-maximal. Read a high EC50 as weaker potency. For the compound `CN(C(=O)c1cnn2cccnc12)c1cc2c(cc1N1CCOCC1)C(=O)N(C[C@@H](F)C(C)(C)O)C2`, the results for the EC50 in assay [1], in assay [2] and in assay [3] were 3.6 µM (not active), > 50 µM (not active) and > 50 µM (not active), respectively.
